Source: the supplement of paper PMC10307832

Tests used:
Test in all cases: relative viability (nuclei count vs DMSO), 5 days (fraction); higher = more cells survive
SGI-1776 + Vorinostat = compound: CN1CCC(CNc2ccc3ncc(-c4cccc(OC(F)(F)F)c4)n3n2)CC1 [SGI-1776] + O=C(CCCCCCC(=O)Nc1ccccc1)NO [Vorinostat] (partner 1 µM)
Method in brief: (§1)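 For relative viability, nuclei counts in treated wells were divided by those in vehicle wells. Lung cancer cell lines had been pin-tool dosed in 1536-well plates the day after seeding and cultured for 5 days, then fixed and stained in one step (final 0.05% Triton X-100, 1% formaldehyde, 1 ug/ml Hoechst) and imaged at 4×. Doses were one drug alone or a fixed anchor-drug dose plus five library-drug doses (not always all listed) in √10 steps, and values are duplicate-plate medians.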

SGI-1776 + Crizotinib = compound: CN1CCC(CNc2ccc3ncc(-c4cccc(OC(F)(F)F)c4)n3n2)CC1 [SGI-1776] + C[C@@H](Oc1cc(-c2cnn(C3CCNCC3)c2)cnc1N)c1c(Cl)ccc(F)c1Cl [Crizotinib] (partner 1 µM)
Method in brief: as §1

SGI-1776 + Decitabine = compound: CN1CCC(CNc2ccc3ncc(-c4cccc(OC(F)(F)F)c4)n3n2)CC1 [SGI-1776] + Nc1ncn([C@H]2C[C@H](O)[C@@H](CO)O2)c(=O)n1 [Decitabine] (partner 2 µM)
Method in brief: as §1

Entinostat + Vorinostat = compound: Nc1ccccc1NC(=O)c1ccc(CNC(=O)OCc2cccnc2)cc1 [Entinostat] + O=C(CCCCCCC(=O)Nc1ccccc1)NO [Vorinostat] (partner 1 µM)
Method in brief: as §1

| Cell Line | relative viability (SGI-1776 + Vorinostat; first compound 0.08 µM) | relative viability (SGI-1776 + Vorinostat; first compound 0.8 µM) | relative viability (SGI-1776 + Vorinostat; first compound 2.53 µM) | relative viability (SGI-1776 + Vorinostat; first compound 8 µM) | relative viability (SGI-1776 + Crizotinib; first compound 0.08 µM) | relative viability (SGI-1776 + Crizotinib; first compound 0.8 µM) | relative viability (SGI-1776 + Crizotinib; first compound 2.53 µM) | relative viability (SGI-1776 + Crizotinib; first compound 8 µM) | relative viability (SGI-1776 + Decitabine; first compound 0.08 µM) | relative viability (SGI-1776 + Decitabine; first compound 0.8 µM) | relative viability (SGI-1776 + Decitabine; first compound 2.53 µM) | relative viability (SGI-1776 + Decitabine; first compound 8 µM) | relative viability (Entinostat + Vorinostat; first compound 0.02 µM) | relative viability (Entinostat + Vorinostat; first compound 0.06325 µM) | relative viability (Entinostat + Vorinostat; first compound 0.2 µM) | relative viability (Entinostat + Vorinostat; first compound 0.6325 µM) | relative viability (Entinostat + Vorinostat; first compound 2 µM) |
| --- | --- | --- | --- | --- | --- | --- | --- | --- | --- | --- | --- | --- | --- | --- | --- | --- | --- |
| SW 1573 | 1.12 | 0.461 | 0.607 | 0.312 | 0.904 | 0.835 | 0.624 | 0.395 | 0.598 | 0.459 | 0.483 | 0.299 | 0.698 | 0.891 | 0.88 | 0.422 | 0.43 |
| LU99A | 0.463 | 0.531 | 0.56 | 0.443 | 0.621 | 0.529 | 0.549 | 0.288 | 0.859 | 0.872 | 0.94 | 0.876 | 0.521 | 0.499 | 0.503 | 0.388 | 0.326 |
| NCI-H1299 |  |  |  |  | 0.969 | 0.969 | 0.917 | 0.807 |  |  |  |  |  |  |  |  |  |
| NCI-H1355 | 0.692 | 0.709 | 0.651 | 0.551 | 1.1 | 1.03 | 1.01 | 0.935 | 0.342 | 0.313 | 0.416 | 0.359 | 0.604 | 0.638 | 0.62 | 0.504 | 0.381 |
| HARA | 0.497 | 0.515 | 0.559 | 0.438 | 1.17 | 1.17 | 1.01 | 0.775 | 0.574 | 0.72 | 0.529 | 0.448 | 0.541 | 0.482 | 0.329 | 0.324 | 0.182 |
| LXF-289 | 0.693 | 0.827 | 0.79 | 0.682 | 0.803 | 0.805 | 0.813 | 0.786 | 0.384 | 0.366 | 0.369 | 0.326 | 0.784 | 0.784 | 0.731 | 0.526 | 0.381 |
| 201T | 0.977 | 1.01 | 0.98 | 0.946 | 1.05 | 1.04 | 1.01 | 1.01 | 0.847 | 0.894 | 0.886 | 0.827 | 0.995 | 1.07 | 0.95 | 0.691 | 0.491 |
| HCC-827 | 0.865 | 0.908 | 0.858 | 0.806 | 0.956 | 0.975 | 0.985 | 0.915 | 0.32 | 0.391 | 0.411 | 0.295 | 0.988 | 0.879 | 0.631 | 0.62 | 0.287 |
| NCI-H1703 |  |  |  |  | 1.17 | 0.521 | 0.272 | 0.124 |  |  |  |  |  |  |  |  |  |
| NCI-H1975 | 0.745 | 0.725 | 0.683 | 0.589 | 0.999 | 0.833 | 0.771 | 0.441 | 0.43 | 0.391 | 0.431 | 0.377 | 0.692 | 0.651 | 0.509 | 0.347 | 0.211 |
| NCI-H2023 | 0.795 | 0.8 | 0.713 | 0.463 | 0.565 | 0.621 | 0.56 | 0.333 | 0.224 | 0.207 | 0.228 | 0.182 | 0.541 | 0.536 | 0.318 | 0.118 | 0.0713 |
| ChaGo-K-1 | 0.788 | 0.825 | 0.797 | 0.73 | 1.16 | 1.12 | 1.13 | 0.362 | 0.56 | 0.542 | 0.558 | 0.47 | 0.765 | 0.763 | 0.768 | 0.626 | 0.464 |
| COR-L 105 | 0.921 | 0.885 | 0.935 | 0.642 | 1.03 | 0.717 | 0.464 | 0.287 | 0.75 | 0.705 | 0.737 | 0.544 | 0.993 | 0.986 | 0.851 | 0.541 | 0.356 |
| NCI-H2170 | 0.83 | 0.825 | 0.853 | 0.76 | 1.13 | 1.28 | 1.17 | 0.969 | 0.478 | 0.441 | 0.393 | 0.475 | 0.803 | 0.72 | 0.683 | 0.476 | 0.265 |
| A549 |  |  |  |  | 0.789 | 0.843 | 0.553 | 0.138 | 0.303 | 0.238 | 0.285 | 0.097 |  |  |  |  |  |
| NCI-H1993 | 1.13 | 0.626 | 0.523 | 0.457 | 0.917 | 0.894 | 0.858 | 0.725 | 0.56 | 0.664 | 0.522 | 0.503 | 0.841 | 0.661 | 0.73 | 0.453 | 0.351 |
| Calu-6 |  |  |  |  | 0.806 | 0.624 | 0.402 | 0.289 |  |  |  |  |  |  |  |  |  |
| NCI-H1648 | 0.476 | 0.555 | 0.294 | 0.39 |  |  |  |  | 0.432 | 0.414 | 0.461 | 0.497 | 0.65 | 0.336 | 0.345 | 0.342 | 0.208 |
| NCI-H322M | 0.882 | 0.926 | 0.846 | 0.707 | 0.998 | 0.824 | 1.01 | 0.664 | 0.724 | 0.753 | 0.65 | 0.658 | 0.967 | 0.975 | 0.981 | 0.876 | 0.808 |
| NCI-H2405 | 1.06 | 1.16 | 0.896 | 0.748 | 0.857 | 0.809 | 0.854 | 0.642 | 0.715 | 0.683 | 0.716 | 0.64 | 1.23 | 1.02 | 0.979 | 0.693 | 0.42 |
| HCC-44 | 1.16 | 1.05 | 1.12 | 1.01 | 0.818 | 0.828 | 0.867 | 0.764 | 0.964 | 0.938 | 0.941 | 0.921 | 1.08 | 0.976 | 0.938 | 0.879 | 0.653 |
| HCC-78 | 0.456 | 0.44 | 0.501 | 0.339 | 0.352 | 0.311 | 0.346 | 0.318 | 0.714 | 0.739 | 0.636 | 0.657 | 0.44 | 0.435 | 0.441 | 0.33 | 0.281 |
